Consider five compounds from patent US11389433B2, “BRD4 inhibitor treatment of IgE-mediated diseases” (THE BOARD OF REGENTS OF THE UNIVERSITY OF TEXAS SYSTEM, priority 2018, dated 2022).

Molecules are shown by their SMILES.

The conditions of series [1]: cited from earlier work.
Series [2] relates to rCDE-challenged C57BL/6 mice. Nature of the series: Repetitive cat dander extract (rCDE) challenge, airway remodeling model. Format: in vivo, mouse. The conditions noted are these: 10 mg/kg ip; for modified Ashcroft score: rCDE alone 8.8±2 (IKKi study), 9±2 (ZL0454 study). The procedure:
12 week old male wild-type (WT) C57BL/6 mice were purchased from Jackson Laboratory (Bar Harbor, Me.). CDE (Stallergenes/Greer laboratories, 20 μg/dose) was administered to naïve C57BL6/J mice every other day via the intranasal route for a total of 15 administrations (n=5 mice/group). In the IKK inhibitor experiments, mice were either pretreated with vehicle or the selective IKK inhibitor [BMS345541, 10 mg/kg via the intraperitoneal (ip) route]. […] Mice were sacrificed 12 d later to allow resolution of the acute inflammation.
Formalin-fixed lungs were embedded in paraffin, sectioned at a 4 μm thickness, and stained with hematoxylin and eosin or Masson's trichrome. Microscopy was performed on a NIKON Eclipse Ti System 16, 17. Pulmonary fibrosis was graded using a modified Ashcroft scoring method 16, 17. In brief, to determine the fibrosis histopathology score for the lung of each mouse, the entire left and right longitudinal lung sections were scored separately (score range, 0 to 9) at ×100 magnification, and the scores were combined (total score range, 0 to 18)^16, 17.
Bronchoalveolar lavage and tissue processing. Animals were anesthetized, bronchoalveolar lavage fluid (BALF) was obtained and the mice sacrificed. Lung tissues were taken for total RNA extraction or fixed for histological examination. For histological examination, lungs were inflated under 25 cm H2O pressure with 10% (v/v) neutral buffered formalin through the tracheal cannula and immersed in 10% buffered formalin for at least 24 h. After being processed into paraffin blocks, the lungs were cut into 5-μm sections and stained with Masson Trichrome to assess fibrotic changes. Microscopy was performed on a NIKON Eclipse Ti System^75.
Quantification of accumulated mucin was assessed by 2 investigators who were blind to the treatment groups on a subjective scale of 0, 1, 2, 3, and 4 corresponding to none, mild, moderate, marked, or severe mucin deposition, respectively. Data were expressed as means of scores recorded by 2 blinded investigators^76,77.
(§1) Cellular recruitment into the airway lumen was assessed in the collected bronchoalveolar lavage fluid (BALF) of mice. Lungs were perfused twice with 1 mL of sterile PBS (pH 7.4) and total cell counts determined by trypan blue staining and counting using a hemocytometer. Differential cell counts were performed on cytocentrifuge preparations (Cytospin 3; Thermo Shandon, Pittsburgh, Pa.) stained with Wright-Giemsa. A total of 300 cells were counted per sample using light microscopy.
(§2) For gene expression analyses, 0.1 μg of cDNA product from reverse transcription of total RNA was amplified using SYBR Green Supermix (Bio-Rad) and gene-specific primers as previously described^75, 78. Quantification of relative changes in gene expression was calculated using the ΔΔCt method^79,80 and expression as the fold change between experimental and control samples was normalized to internal control peptidylprolyl isomerase A (PPI1A)/cyclophilin A.
Confocal Immunofluorescence assays of lung sections were performed on formalin-fixed, paraffin-embedded sections after rehydration using serial concentrations of ethanol. Antigen retrieval was performed in Tris-EDTA buffer (pH 9.0). Lung sections were blocked using 0.1% Triton-X, 5% normal goat serum in phosphate buffered saline (PBS) and incubated with primary antibodies of rabbit anti-p276RelA, pIKKα/β, SNAIL H3K122ac, COL1A, VIM, FN1, and αSMA (Abcam, 1:100 dilution) overnight at 4° C. Normal anti-rabbit IgG were used as staining specificity controls. After washing, lung sections were stained with Alexa Fluor 488- or 568-conjugated goat anti-rabbit IgG (Life Technologies) in incubation buffer for 1 h. Nuclei were stained with 4′, 6-diamidino-2-phenylindole (DAPI) (5 μg/ml in PBS, 20 min) and mounted slides visualized with a LSM510 fluorescence confocal microscope, magnification 63×.
Total IgE in serum were measured using Sandwich ELISA. […]

A further series concerns CIG5. As to the kind of experiment: Inhibition of CIG5 induction in hSAECs. The class given is cell-based. The conditions noted are these: Homo sapiens.
Series [3] relates to acute CDE-challenged mice. Nature of the series: Acute intranasal CDE challenge, BALF cell counts. Format: in vivo, mouse. The conditions noted are these: 10 mg/kg; within 24 h of treatment.
Text: FIG. 12. BRD4 pathway mediates CDE-induced EMT of airway epithelial cells. […] A, Q-RT-PCR for CDH1 mRNA expression. #, p<0.01, compared to without CDE, n=3. B, Q-RT-PCR for SNAI1 mRNA expression. *, p<0.01, compared to CDE alone, n=3. C, Q-RT-PCR for COL1A, FN1, and VIM mRNA expression. D, Q-RT-PCR for IL6 mRNA expression. E, Confocal immunofluorescence microscopy for phalloidin (green color), H3K122-Ac (red color), SNAI1 (green color), and VIM (red color) counterstained with DAPI (blue color) in WT hSAECs in absence or presence of CDE (20 μg/mL, 15d) stimulation. Images were acquired at 63×. At right are quantifications of relative fluorescence intensities of phalloidin, H3K122ac, SNAIL and VIM, * p<0.01, n=5. […] Shown are total, macrophage, and neutrophil counts in BALF 24 h later after CDE challenge. G. Total serum IgE was quantitated for each chronic treatment group **, p<0.01, n=5.
as §1

For series [4] the following is noted: 3 months of administration; cited from earlier work.
The target of the next series is BRD4 (Homo sapiens, UniProt O60885). Conditions: in cellulo; cited from earlier work.
The test system of a further series is hSAECs. Nature of the series: CDE-induced mesenchymal transition of hSAECs. Format: cell-based, human. The conditions noted are these: CDE 20 μg/mL 15 d; 10 μM. How it is done: Immortalized human small airway epithelial cells (hSAECs) were previously described^25. hSAECs were grown in SAGM small airway epithelial cell growth medium (Lonza, Walkersville, Md.) in a humidified atmosphere of 5% CO2. BMS345541 was purchased from Sigma Aldrich. CDE was purchased from Greer Laboratories.
as §2
hSAECs were incubated ±CDE (20 μg/mL) for 15 d, re-plated on glass cover slips pretreated with rat tail collagen (Roche Applied Sciences), and fixed with 4% paraformaldehyde in PBS. Afterwards, the fixed cells were stained with Alexa Fluor® 488- or 568-phalloidin (Life Technologies) for cytoplasmic distribution of F-actin (green or red color) and also counterstained with 4′,6-diamidino-2-phenylindole (DAPI) for nuclear staining (blue color). The cells were visualized with a Nikon fluorescence confocal microscope at a magnification of 63×^75, 78.
For immunofluorescence staining, hSAECs were plated on rat tail collagen-treated cover glasses and stimulated with CDE for the indicated times. The cells were fixed with 4% paraformaldehyde in PBS and incubated with 0.1 m ammonium chloride for 10 min. […] After washing, cells were stained with Alexa Fluor 488- or 568-conjugated goat anti-rabbit IgG (Life Technologies) respectively in incubation buffer for 1 h, then visualized with a LSM510 fluorescence confocal microscope, magnification 63×.

In a further series the test system is IL-6. As to the kind of experiment: Inhibition of IL-6 induction in hSAECs. Format: cell-based. Conditions: Homo sapiens.

In the case of `CCC(=O)O[C@]1(C(=O)SCF)[C@H](C)C[C@H]2[C@@H]3C[C@H](F)C4=CC(=O)C=C[C@]4(C)[C@@]3(F)[C@@H](O)C[C@@]21C` [Fluticasone propionate], in series [1], the “solubility in dimethyl sulfoxide and dimethylformamide” value is “freely soluble”; the “solubility in methanol and 95% ethanol” value is listed as “slightly soluble”. The solubility in water entry in series [1] (water) is “practically insoluble”.
`Cc1ccc2nc(NCCN)c3ncc(C)n3c2c1` [IKKi, reference compound]: in series [2] (rCDE 15 intranasal challenges, rCDE alone 1,700×10^3), the “total leukocytes in the BALF” value is recorded as 450×10^3 cells/ml. In addition, in series [2] (rCDE), the “CDE-specific circulating IgE (allergic sensitization)” value was “completely blocked”; the “PAS staining (mucin, mucous metaplasia)” value was “blocked”; the “fibrosis / collagen formation and hypercellularity (Masson trichrome)” value is “reduced the fibrosis and hypercellularity, although not completely in the alveoli”; the “mesenchymal and ECM gene mRNA expression in total lung RNA (Q-RT-PCR)” value is given as “inhibited”. In series [2] (rCDE), the “mucosal mesenchymal and ECM proteins (SNAI1, VIM, COL1A, FN1), immunofluorescence” value is recorded as “completely blocked”; the “subepithelial αSMA+/COL1+ myofibroblast population” value is recorded as “blocked”; the “modified Ashcroft score” value is reported as 2±1. For the same compound, in series [2] (rCDE, rCDE alone 2-fold increase), the “hydroxyproline concentration in BALF and lung tissue” value is given as “normalized”. Moreover, the “phospho-IKKα/β abundance in the airway epithelial layer” value in series [2] (rCDE, rCDE alone 9-fold increase) was “reduced to control values”. In series [2] (rCDE, rCDE alone 14-fold increase), the “mucosal phospho-Ser 276 RelA formation” value is on record as “blocked”.
Usually IC50 stands for the concentration that inhibits the measured activity by half. The low end stands for higher potency, the high end for lower potency. `Cc1cc(/N=N/c2ccc3c(c2)CCC(=O)N3)c(N)cc1O` [ZL0420] had an IC50 with CIG5 of 0.42 µM.
With `Cc1cc(/N=N/c2ccc(S(=O)(=O)NC3CCCC3)cc2)c(N)cc1O` [ZL0454, (E)-4-((2-Amino-4-hydroxy-5-methylphenyl)diazenyl)-N-cyclopentylbenzenesulfonamide], in series [2] (rCDE), the “CDE-specific circulating IgE (allergic sensitization)” value was “completely blunted allergic responses”; the “PAS staining (mucin, mucous metaplasia)” value is “reduced”; the “RelA-BRD4 binding in lung sections (proximity ligation assay)” value was “disrupted”; the “fibrosis / collagen formation and hypercellularity (Masson trichrome)” value was “reduced collagen formation and hypercellularity”. In addition, in series [2] (rCDE), the “mesenchymal and ECM gene mRNA expression in total lung RNA (Q-RT-PCR)” value is listed as “BRD4-dependent”; the “mucosal H3K122 Ac staining (BRD4 HAT activity)” value is listed as “inhibited”; the “mucosal mesenchymal and ECM proteins (SNAI1, VIM, COL1A, FN1), immunofluorescence” value is recorded as “inhibited”; the “subepithelial αSMA+/COL1+ myofibroblast population” value is recorded as “blocked”. For the same compound, in series [2] (rCDE), the “modified Ashcroft score” value is recorded as 1.5±0.5. Further, in series [2] (rCDE, rCDE alone 0.65±1), the “hydroxyproline content in the lung” value was 0.35 ± 0.4 µg/mg. Also, the “hydroxyproline content in BALF” value in series [2] (rCDE, rCDE alone 130±20) is 70 ± 10 ng/mL. Also, the “acute CDE-induced BALF neutrophilia” value in series [3] is “blocked”. For the same compound, the “tolerability / apparent toxicity” value in series [4] is given as “well tolerated over 3 months of administration without apparent toxicity”. In addition, the “BRD4 binding to Pol II and histones” value at BRD4 is reported as “disrupts”. Further, in the series on hSAECs, the “CDE-induced inhibition of CDH1 mRNA” value is listed as “blocked”; the “CDE-induced upregulation of SNAI1, FN1, VIM, COL1A and IL6 mRNAs” value was “significantly blocked”; the “formation of actin stress fibers, H3K122 Ac, SNAI1 and VIM expression (confocal immunofluorescence)” value is “prevented”.
With `COc1cc(OC)c2c(=O)cc(-c3cc(C)c(OCCO)c(C)c3)oc2c1` [ZL0468], the figures for the IC50 with IL-6 and in the series with CIG5 were 2.8 µM and 2.6 µM, respectively.
